Assay results published in ChEMBL document CHEMBL1201862, “PubChem BioAssay data set” (2004).
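Assay format: 96-well plates, 48-hour exposure. GI50: concentration for 50% inhibition of growth.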 Activity calls are given as the source filed them. Cut-off read from the data, not from the text of the source: active = GI50 up to about 1.1 µM and inactive = higher.

Legend:
Assay in all cases: NCI-60 cell line screen, 48 h
A498 = tested on: A498
A549 = tested on: A549
CCRF-CEM = tested on: CCRF-CEM
COLO 205 = tested on: COLO 205
EKVX = tested on: EKVX
HT-29 = tested on: HT-29
IGROV-1 = tested on: IGROV-1
KM12 = tested on: KM12
LOX IMVI = tested on: LOX IMVI
OVCAR-3 = tested on: OVCAR-3
RXF 393 = tested on: RXF 393
SK-MEL-5 = tested on: SK-MEL-5
SN12C = tested on: SN12C
SNB-75 = tested on: SNB-75
TK-10 = tested on: TK-10
U-251 = tested on: U-251
UACC-62 = tested on: UACC-62

Measured: GI50

CCCCCCN(CCCCCC)C1=CC(=O)C(=O)c2ccccc21
inactive: A498 26.5 µM | A549 17.1 µM | CCRF-CEM 14.9 µM | COLO 205 16.7 µM | EKVX 14.6 µM | HT-29 15.1 µM | IGROV-1 17.2 µM | KM12 17.6 µM | LOX IMVI 8.49 µM | OVCAR-3 3.55 µM | RXF 393 25.1 µM | SK-MEL-5 17.2 µM | SN12C 16.4 µM | SNB-75 16.8 µM | TK-10 21.7 µM | U-251 15.8 µM | UACC-62 16.5 µM

CN(C)c1ccc(/C=N\N2C(=O)c3ccccc3C2=O)cc1
inactive: A498 > 100 µM | A549 > 100 µM | CCRF-CEM > 100 µM | EKVX > 100 µM | HT-29 > 100 µM | IGROV-1 > 100 µM | KM12 > 100 µM | LOX IMVI > 100 µM | OVCAR-3 > 100 µM | RXF 393 > 100 µM | SK-MEL-5 > 100 µM | SN12C > 100 µM | SNB-75 40.9 µM | TK-10 > 100 µM | UACC-62 > 100 µM

CCOC(=O)/C(C(=O)c1ccccc1)=C1/NCCN1C
inactive: A549 > 100 µM | CCRF-CEM > 100 µM | COLO 205 > 100 µM | EKVX > 100 µM | HT-29 > 100 µM | IGROV-1 > 100 µM | KM12 > 100 µM | LOX IMVI > 100 µM | OVCAR-3 > 100 µM | RXF 393 > 100 µM | SK-MEL-5 > 100 µM | SN12C > 100 µM | U-251 > 100 µM | UACC-62 > 100 µM

N#C/C(=C/c1ccsc1)C(=O)c1ccccc1
inactive: A549 > 100 µM | CCRF-CEM > 100 µM | COLO 205 > 100 µM | EKVX > 100 µM | HT-29 > 100 µM | KM12 > 100 µM | LOX IMVI > 100 µM | OVCAR-3 > 100 µM | RXF 393 > 100 µM | SK-MEL-5 > 100 µM | SN12C > 100 µM | SNB-75 > 100 µM | TK-10 > 100 µM | U-251 > 100 µM | UACC-62 > 100 µM

CC1=C(c2ccccc2)C(c2ccccc2)=C(c2ccccc2)C2(c3ccccc3)C(=O)C(C)CN12 (stereo not drawn)
inactive: A498 > 100 µM | A549 57.1 µM | EKVX 41.4 µM | HT-29 42.3 µM | IGROV-1 99.5 µM | KM12 43.1 µM | LOX IMVI 58.7 µM | OVCAR-3 34.7 µM | RXF 393 26.1 µM | SK-MEL-5 59 µM | SN12C 41.7 µM | SNB-75 19.4 µM | U-251 30.3 µM | UACC-62 10.3 µM

O=C1OC(=O)C2C1C1C(c3ccccc3)=C(c3ccccc3)C2(O)C2C(=O)OC(=O)C12 (stereo not drawn)
inactive: A498 > 100 µM | A549 > 100 µM | CCRF-CEM 37.5 µM | COLO 205 > 100 µM | EKVX > 100 µM | HT-29 46.9 µM | IGROV-1 > 100 µM | KM12 > 100 µM | OVCAR-3 > 100 µM | SN12C 96.2 µM | SNB-75 27.9 µM | TK-10 > 100 µM | U-251 52.1 µM | UACC-62 > 100 µM

O=C1C=CC(=O)c2c1ccc1c3ccccc3n(-c3ccccn3)c21
inactive: A549 > 100 µM | CCRF-CEM 2.5 µM | COLO 205 14.2 µM | EKVX 13.8 µM | HT-29 28.4 µM | KM12 > 100 µM | OVCAR-3 24.7 µM | SN12C 55.1 µM | SNB-75 > 100 µM | TK-10 16.7 µM | U-251 > 100 µM

COC(=O)C1=C(C(=O)OC)C2(C(=O)OC)OC1(OC)C(C1(C(=O)OC)C(C(=O)OC)=C1C(=O)OC)=C2C(=O)OC (stereo not drawn)
inactive: A549 > 100 µM | CCRF-CEM > 100 µM | COLO 205 > 100 µM | EKVX > 100 µM | HT-29 > 100 µM | IGROV-1 > 100 µM | KM12 > 100 µM | LOX IMVI > 100 µM | OVCAR-3 > 100 µM | RXF 393 > 100 µM | SK-MEL-5 > 100 µM | SN12C > 100 µM | SNB-75 > 100 µM | TK-10 > 100 µM | U-251 > 100 µM | UACC-62 > 100 µM

CCOc1ccc2c(c1)[n+]([O-])c(-c1ccc(Br)cc1)c(N)[n+]2[O-]
inactive: A498 45.3 µM | A549 59.6 µM | CCRF-CEM 53.1 µM | COLO 205 24.2 µM | EKVX 52.8 µM | HT-29 64.4 µM | IGROV-1 67 µM | KM12 85.5 µM | LOX IMVI > 100 µM | OVCAR-3 48.1 µM | SK-MEL-5 20.8 µM | SN12C 71 µM | SNB-75 > 100 µM | TK-10 > 100 µM | U-251 47.3 µM | UACC-62 38.1 µM

O=S1(=O)NN=C(NCc2ccc(Cl)cc2)c2ccccc21
inactive: A498 > 100 µM | A549 > 100 µM | CCRF-CEM 45.2 µM | COLO 205 > 100 µM | EKVX 46.9 µM | HT-29 > 100 µM | IGROV-1 > 100 µM | KM12 > 100 µM | LOX IMVI 69 µM | OVCAR-3 > 100 µM | RXF 393 30.5 µM | SK-MEL-5 > 100 µM | SN12C > 100 µM | U-251 50.4 µM | UACC-62 83.6 µM

Cc1c(C)n(COCCO)c2ncnc(N)c12
inactive: A498 > 100 µM | A549 > 100 µM | CCRF-CEM > 100 µM | COLO 205 > 100 µM | EKVX > 100 µM | HT-29 > 100 µM | IGROV-1 > 100 µM | KM12 > 100 µM | OVCAR-3 > 100 µM | RXF 393 > 100 µM | SK-MEL-5 > 100 µM | SN12C > 100 µM | SNB-75 > 100 µM | TK-10 > 100 µM | U-251 > 100 µM

Nc1ccn(CCCC(c2ccccc2)P(=O)(O)O)c(=O)n1 (stereo not drawn)
inactive: A498 > 100 µM | A549 > 100 µM | CCRF-CEM > 100 µM | COLO 205 > 100 µM | HT-29 > 100 µM | IGROV-1 > 100 µM | KM12 > 100 µM | LOX IMVI > 100 µM | OVCAR-3 > 100 µM | SK-MEL-5 > 100 µM | SN12C > 100 µM | SNB-75 > 100 µM | TK-10 > 100 µM | U-251 > 100 µM | UACC-62 > 100 µM

Cc1ccc(NC(=O)CC/C(CC(=O)C(C)(C)C)=N/NC(=O)C(N)=O)cc1C
inactive: A498 > 100 µM | A549 > 100 µM | CCRF-CEM > 100 µM | COLO 205 > 100 µM | EKVX > 100 µM | HT-29 > 100 µM | IGROV-1 > 100 µM | KM12 > 100 µM | OVCAR-3 > 100 µM | RXF 393 > 100 µM | SK-MEL-5 > 100 µM | SN12C > 100 µM | SNB-75 > 100 µM | TK-10 > 100 µM | U-251 > 100 µM | UACC-62 > 100 µM
